This data set concerns Kornkäfer (sitophilus granarius L). The experiment in a line: whole plant or invertebrate. The conditions noted are these: for mortality at 1000 µg/mL: Sitophilus granarius, read-out: Wirksamkeit in % Substanz allein. It counts as in vivo. As for the experimental part: Test von tertiären, heterocyclischen Aminen allein und im Gemisch mit Pyrethroiden an Kornkäfern (sitophilus granarius L)
In Petrischalen mit 15 cm Durchmesser mit talcumbepuderten Seitenwänden, um das Entfliehen der Kornkäfer zu verhindern, wurden jeweils 2 ml der Acetonlösungen einpipettiert und durch vorsichtiges Schwenken der Schalen gleichmäßig auf dem Boden verteilt. Nach dem Abdampfen des Acetons und dem Antrocknen der Beläge wurden in jede Schale 25 Kornkäfer eingezählt. Nach einer Stunde wurde jeweils ein 12,5 cm Rundfilter in die Schalen eingelegt, um den Käfern das Befreien aus der Rückenlage zu ermöglichen, was auf der glatten Glasplatte nicht möglich ist. Die lichtscheuen Käfer verkrochen sich mit Vorliebe unter die Filter und blieben so ständig mit den Wirkstoffbelägen in Kontakt. Alle Versuche liefen mit 3 Wiederholungen. Nach 3 h wurden die toten Käfer ausgezählt.
In der Tabelle 3 ist jeweils der Durchschnitt der Summe der 4 Einzelwerte angegeben. 25 tote Kornkäfer entsprechen dabei einer Wirkung von 100 %. Die Temperaturen betrugen während der Tests im Durchschnitt 19 - 21°C. Der synergistische Faktor berechnet sich analog wie in Beispiel 1 angegeben.
Die zu prüfenden tertiären, heterocyclischen Amine wurden - mit 1 mg Wirkstoff pro ml als Acetonlösungen angesetzt. Sie wurden im Verhältnis 1 : 1 mit Ripcord bzw. Talcord, die mit 0,01 mg Wirkstoff pro ml als Acetonlösung vorlagen, gemischt. Die Einzelkomponenten wurden im Verhältnis 1 : 1 mit Aceton gemischt.
Auch bei diesen Versuchen zeigten die Kontrollversuche stets bei Versuchsende eine Mortalität der Kornkäfer von 0 %.
Die synergistische Wirkung der tertiären, heterocyclischen Amine auf die Pyrethroide ist auch dann noch deutlich, wenn das Amin in wesentlich niederen Aufwandmengen eingesetzt wird, als dies in Beispiel 3 beschrieben wurde. Die Ergebnisse sind in der Tabelle 4 zusammengestellt. Dieser Versuch zeigt auch, daß Amine mit insektiziden Eigenschaften, wenn sie in Konzentrationen unterhalb ihres insektiziden Wirkungsbereiches eingesetzt werden, immer noch gute synergistische Wirkungen im Gemisch mit Pyrethroiden zeigen. Die Versuche wurden wie im Beispiel 3 beschrieben mit Kornkäfern durchgeführt. Es wurden lediglich die Konzentrationen der eingesetzten tertiären, heterocyclischen Amine geändert. Für die Verdünnung Pyrethroid : Amin = 1 : 10 wurde das Amin mit 0,1 mg Wirkstoff/ml Acetonlösung eingesetzt. Für die Verdünnung 1 : 5 mit 0,05 mg Wirkstoff/ml.

[1] abbreviates: amine 1 mg/ml in Aceton mixed 1 : 1 with Aceton, 2 ml per dish, 25 weevils, dead counted after 3 h.
[2] abbreviates: amine 1 mg/ml mixed 1 : 1 with Ripcord 0,01 mg/ml, 3 h.
The mark [3] stands for this setting: amine 1 mg/ml mixed 1 : 1 with Talcord 0,01 mg/ml, 3 h.
The mark [4] stands for this setting: amine 1 mg/ml + Ripcord 0,01 mg/ml.
The mark [5] stands for this setting: amine 1 mg/ml + Talcord 0,01 mg/ml.
Setting [6] is: sitophilus granarius, in vivo, 3 h.

The values below come from EP0029617A1, “Use of tertiary heterocyclic amines as synergists in pesticides; derivatives of cycloamines” (priority 1979, dated 1981).

Each structure is given as a SMILES string. Read-outs that look alike come from different tables or passages of the source.

`c1ccc(C(N2CCCCC2)N2CCCCC2)cc1` [Benzal-di-N,N-piperidin]: the “Wirksamkeit in % Substanz allein” value under setting [1] came to 0%. Also, the “Wirksamkeit in % Substanz +Ripcord” value under setting [2] was 40,0%. Further, the “Wirksamkeit in % Substanz +Talcord” value under setting [3] was 18,8%. Where the note is “in vivo”, the “Synergistischer Faktor bei Ripcord” value is given as 1,26 and the “Synergistischer Faktor bei Talcord” value is on record as 1,94.

Take `c1ccc(OCCN2CCCC2)cc1` [N-1-2-phenoxiethyl-pyrrolidin]: the “Synergistischer Faktor bei Ripcord” value under setting [4] is reported as 1,69. Besides, the “Synergistischer Faktor bei Talcord” value under setting [5] is on record as 2,88. For the same compound, under setting [1], the “Wirksamkeit in % Substanz allein” value is recorded as 0%. The “Wirksamkeit in % Substanz +Ripcord” value under setting [2] was 53,2%. The “Wirksamkeit in % Substanz +Talcord” value under setting [3] is given as 28,0%.

For `CCOCCN1CCCC1` [N-1-(1'-Ethoxiethyl-(2))-pyrrolidin], the “Synergistischer Faktor bei Ripcord” value under setting [4] was 2,22. Moreover, the “Wirksamkeit in % Substanz allein” value under setting [1] was found to be 0%. Further, the “Wirksamkeit in % Substanz +Ripcord” value under setting [2] is listed as 70,0%. Besides, the “Wirksamkeit in % Substanz +Talcord” value under setting [3] amounted to 0%.

Take `CCCCOCCOCCN1CCCC1` [N-1-(2'-Butoxi-diethyl-ether-(2))-pyrrolidin]: the “Synergistischer Faktor bei Ripcord” value (in vivo) is given as 2,47. Also, under setting [6], the “Wirksamkeit in % Substanz +Ripcord” value was 78,0%, the “Wirksamkeit in % Substanz +Talcord” value is on record as 8,9% and the “Wirksamkeit in % Substanz allein” value is recorded as 0%.

In the case of `CCCCC(CC)CN1CCCC1` (stereo not drawn) [N-1-(2-Ethyl)-hexyl-pyrrolidin], under setting [4], the “Synergistischer Faktor bei Ripcord” value was 1,78. Also, under setting [5], the “Synergistischer Faktor bei Talcord” value is reported as 4,24. The “Wirksamkeit in % Substanz allein” value under setting [1] turned out to be 0%. The “Wirksamkeit in % Substanz +Ripcord” value under setting [2] is on record as 56,0%. Besides, the “Wirksamkeit in % Substanz +Talcord” value under setting [3] is on record as 41,2%.

Regarding `C=CCN1CCCCC1` [N-1-Allyl-piperidin], the “Synergistischer Faktor bei Ripcord” value under setting [4] is 2,32. The “Synergistischer Faktor bei Talcord” value under setting [5] is 1,36. Besides, under setting [1], the “Wirksamkeit in % Substanz allein” value is given as 0%. The “Wirksamkeit in % Substanz +Ripcord” value under setting [2] was 73,2%. The “Wirksamkeit in % Substanz +Talcord” value under setting [3] is reported as 13,2%.

In the case of `CCCCCCCCCCN1CCOCC1` [N-1-Decyl-morpholin], the mortality at 1000 µg/mL under setting [1] was 0%. Moreover, under setting [4], the “Synergistischer Faktor bei Ripcord” value is 2,32. For the same compound, under setting [5], the “Synergistischer Faktor bei Talcord” value was 8,37. Moreover, under setting [2], the “Wirksamkeit in % Substanz +Ripcord” value was 73,1%. The “Wirksamkeit in % Substanz +Talcord” value under setting [3] is reported as 81,2%.

Regarding `CCCCCCCCCCCCN1CCCCC1C` (stereo not drawn) [N-1-Dodecyl-2-methyl-piperidin], the mortality at 1000 µg/mL under setting [1] worked out at 0%. For the same compound, the “Synergistischer Faktor bei Ripcord” value under setting [4] was 1,49. Under setting [5], the “Synergistischer Faktor bei Talcord” value was 2,06. Besides, the “Wirksamkeit in % Substanz +Ripcord” value under setting [2] was 46,8%. Also, under setting [3], the “Wirksamkeit in % Substanz +Talcord” value is given as 20,0%.

With `CCCCCCCCCCCCN1CC1` [N-1-Dodecyl-ethylenimin], for the setting “3 h”, the mortality at 1000 µg/mL stood at 0%. Further, the “Synergistischer Faktor bei Ripcord” value under setting [4] is reported as 2,86. Besides, the “Synergistischer Faktor bei Talcord” value under setting [5] is given as 3,71. Moreover, the “Wirksamkeit in % Substanz +Ripcord” value under setting [2] was 90,0%. In addition, under setting [3], the “Wirksamkeit in % Substanz +Talcord” value is on record as 36,0%.

Consider `CCCCCCCCCCCCN1CCCCCC1` [N-1-Dodecyl-hexamethylenimin], for which the mortality at 1000 µg/mL under setting [1] was found to be 14%. Besides, the “Synergistischer Faktor bei Ripcord” value under setting [4] is reported as 1,59. The “Synergistischer Faktor bei Talcord” value under setting [5] is 1,03. Also, the “Wirksamkeit in % Substanz +Ripcord” value under setting [2] is reported as 64,0%. The “Wirksamkeit in % Substanz +Talcord” value under setting [3] was 24,0%.

`CCCCCCCCCCCCN1CCOCC1` [N-1-Dodecyl-morpholin]: under setting [1], the mortality at 1000 µg/mL is 0%. Also, the “Synergistischer Faktor bei Ripcord” value under setting [4] is listed as 2,76. In addition, under setting [5], the “Synergistischer Faktor bei Talcord” value was 1,53. Besides, the “Wirksamkeit in % Substanz +Ripcord” value under setting [2] is given as 86,8%. Under setting [3], the “Wirksamkeit in % Substanz +Talcord” value was 14,8%.

In the case of `CCCCCCCCCCCCN1CCCCC1` [N-1-Dodecyl-piperidin], the mortality at 1000 µg/mL under setting [1] was 24%. Further, the “Synergistischer Faktor bei Ripcord” value under setting [4] is given as 2,24. For the same compound, the “Wirksamkeit in % Substanz +Ripcord” value under setting [2] was 94,6%.

For `CCCCCCCCCCCCN1CCCC1` [N-1-Dodecyl-pyrrolidin], the mortality at 1000 µg/mL under setting [1] amounted to 89.3%. Further, under setting [2], the “Wirksamkeit in % Substanz +Ripcord” value is on record as 92,0%. In addition, the “Wirksamkeit in % Substanz +Talcord” value under setting [3] is on record as 96,0%.

On to `CCOCCN1CCCCC1` [N-1-Ethoxi-ethyl-(2)-piperidin], for which the “Synergistischer Faktor bei Ripcord” value under setting [4] is on record as 1,78. Further, the “Wirksamkeit in % Substanz allein” value under setting [1] is recorded as 0%. Under setting [2], the “Wirksamkeit in % Substanz +Ripcord” value is on record as 56,0%. Besides, under setting [3], the “Wirksamkeit in % Substanz +Talcord” value was found to be 0%.

Regarding `CCCCCCCCCCCCCCCCN1CCCCC1CC` (stereo not drawn) [N-1-Hexadecyl-2-ethyl-piperidin], under setting [1], the mortality at 1000 µg/mL came out at 0%. Under setting [4], the “Synergistischer Faktor bei Ripcord” value is 2,37. Also, the “Synergistischer Faktor bei Talcord” value under setting [5] is reported as 1,94. In addition, under setting [2], the “Wirksamkeit in % Substanz +Ripcord” value is given as 74,8%. Under setting [3], the “Wirksamkeit in % Substanz +Talcord” value was 18,8%.

On to `CCCCCCCCCN1CCCCCC1` [N-1-Nonyl-hexamethylenimin], for which, under setting [1], the mortality at 1000 µg/mL was determined as 40%. The “Synergistischer Faktor bei Ripcord” value under setting [4] is recorded as 1,82. Besides, the “Synergistischer Faktor bei Talcord” value under setting [5] is 4,54. Also, the “Wirksamkeit in % Substanz +Ripcord” value under setting [2] is on record as 97,2%. Moreover, under setting [3], the “Wirksamkeit in % Substanz +Talcord” value was 84,0%.

As for `CCCCCCCCN1CCCCC1CC` (stereo not drawn) [N-1-Octyl-2-ethyl-piperidin], under setting [1], the mortality at 1000 µg/mL turned out to be 26.8%. Further, under setting [4], the “Synergistischer Faktor bei Ripcord” value is 1,52. In addition, the “Synergistischer Faktor bei Talcord” value under setting [5] is 2,60. In addition, under setting [2], the “Wirksamkeit in % Substanz +Ripcord” value is reported as 74,8%. Under setting [3], the “Wirksamkeit in % Substanz +Talcord” value is on record as 52,0%.

For `CCCCCCCCN1CCCCC1` [N-1-Octyl-piperidin], the mortality at 1000 µg/mL under setting [1] amounted to 0%. Besides, the “Synergistischer Faktor bei Ripcord” value under setting [4] is 1,74. Also, the “Synergistischer Faktor bei Talcord” value under setting [5] is recorded as 1,24. Also, the “Wirksamkeit in % Substanz +Ripcord” value under setting [2] is reported as 54,8%. Further, the “Wirksamkeit in % Substanz +Talcord” value under setting [3] is given as 12,0%.

For the compound `CCCCCCCCN1CCCC1` [N-1-Octyl-pyrrolidin], the mortality at 1000 µg/mL under setting [1] was 0%. The “Synergistischer Faktor bei Ripcord” value under setting [4] is on record as 1,78. Further, under setting [5], the “Synergistischer Faktor bei Talcord” value is 4,12. The “Wirksamkeit in % Substanz +Ripcord” value under setting [2] is 56,0%. Moreover, the “Wirksamkeit in % Substanz +Talcord” value under setting [3] is reported as 40,0%.

As for `CCCCCN1CCOCC1` [N-1-Pentyl-morpholin], under setting [1], the mortality at 1000 µg/mL was determined as 0%. Further, under setting [4], the “Synergistischer Faktor bei Ripcord” value is 2,79. Moreover, the “Synergistischer Faktor bei Talcord” value under setting [5] was 3,83. In addition, the “Wirksamkeit in % Substanz +Ripcord” value under setting [2] is listed as 88,0%. The “Wirksamkeit in % Substanz +Talcord” value under setting [3] is listed as 37,2%.

Turning to `CCCCCN1CCCCC1` [N-1-Pentyl-piperidin], the mortality at 1000 µg/mL under setting [1] stood at 0%. The “Synergistischer Faktor bei Ripcord” value under setting [4] was 1,94. Under setting [5], the “Synergistischer Faktor bei Talcord” value is given as 2,06. The “Wirksamkeit in % Substanz +Ripcord” value under setting [2] was 61,2%. For the same compound, the “Wirksamkeit in % Substanz +Talcord” value under setting [3] is listed as 20,0%.

Turning to `CCCCCN1CCCC1` [N-1-Pentyl-pyrrolidin], the mortality at 1000 µg/mL under setting [1] stood at 0%. Besides, the “Synergistischer Faktor bei Ripcord” value under setting [4] is 2,37. The “Synergistischer Faktor bei Talcord” value under setting [5] was 10,3. For the same compound, the “Wirksamkeit in % Substanz +Ripcord” value under setting [2] is 74,8%. In addition, under setting [3], the “Wirksamkeit in % Substanz +Talcord” value was 100,0%.

Regarding `c1ccc(CCN2CCOCC2)cc1` [N-1-Phenyl-ethyl-(2)-morpho-lin], under setting [4], the “Synergistischer Faktor bei Ripcord” value is reported as 2,76. Also, under setting [5], the “Synergistischer Faktor bei Talcord” value was 7,55. Besides, under setting [1], the “Wirksamkeit in % Substanz allein” value was found to be 0%. Also, the “Wirksamkeit in % Substanz +Ripcord” value under setting [2] is reported as 86,8%. In addition, the “Wirksamkeit in % Substanz +Talcord” value under setting [3] was 73,2%.
